Data taken from patent US20210077469A1, “PHARMACEUTICAL COMBINATIONS OF EGFR INHIBITORS AND METHODS OF USE THEREOF” (DANA-FARBER CANCER INSTITUTE, INC., priority 2018, published 2021).

Molecular target: L858R/T790M EGFR (Homo sapiens, UniProt P00533, L858R/T790M)
Conditions: Ba/F3 cells harboring L858R/T790M EGFR treated with inhibitor; lysates immunoprecipitated by biotinylated Compound A; FIG. 2A
Procedure: 15-20 μg of proteins lysates were aliquoted and loaded at the same time as the pull down assay to ensure the presence of EGFR protein, phospho-EGFR activity. Tubulin expression was assessed to ensure even loading of gels. 500 μg of protein was incubated with either biotinylated-linker (control) or with biotinylated Compound A for two hours before 50% NeutrAvidin agarose beads (Thermo Fisher Scientific) slurry was added for an hour to precipitate the EGFR that was associated to the biotinylated allosteric inhibitor. The beads were then washed three times with PBS containing 1% IGEPAL and an insulin syringe was used to remove extraneous buffer before the samples were suspended in 2×SDS sample preparation buffer for Western blotting analyses. All experiments were performed at least three times.

L858R/T790M EGFR, sequence (P00533 25-1210 T790M/L858R): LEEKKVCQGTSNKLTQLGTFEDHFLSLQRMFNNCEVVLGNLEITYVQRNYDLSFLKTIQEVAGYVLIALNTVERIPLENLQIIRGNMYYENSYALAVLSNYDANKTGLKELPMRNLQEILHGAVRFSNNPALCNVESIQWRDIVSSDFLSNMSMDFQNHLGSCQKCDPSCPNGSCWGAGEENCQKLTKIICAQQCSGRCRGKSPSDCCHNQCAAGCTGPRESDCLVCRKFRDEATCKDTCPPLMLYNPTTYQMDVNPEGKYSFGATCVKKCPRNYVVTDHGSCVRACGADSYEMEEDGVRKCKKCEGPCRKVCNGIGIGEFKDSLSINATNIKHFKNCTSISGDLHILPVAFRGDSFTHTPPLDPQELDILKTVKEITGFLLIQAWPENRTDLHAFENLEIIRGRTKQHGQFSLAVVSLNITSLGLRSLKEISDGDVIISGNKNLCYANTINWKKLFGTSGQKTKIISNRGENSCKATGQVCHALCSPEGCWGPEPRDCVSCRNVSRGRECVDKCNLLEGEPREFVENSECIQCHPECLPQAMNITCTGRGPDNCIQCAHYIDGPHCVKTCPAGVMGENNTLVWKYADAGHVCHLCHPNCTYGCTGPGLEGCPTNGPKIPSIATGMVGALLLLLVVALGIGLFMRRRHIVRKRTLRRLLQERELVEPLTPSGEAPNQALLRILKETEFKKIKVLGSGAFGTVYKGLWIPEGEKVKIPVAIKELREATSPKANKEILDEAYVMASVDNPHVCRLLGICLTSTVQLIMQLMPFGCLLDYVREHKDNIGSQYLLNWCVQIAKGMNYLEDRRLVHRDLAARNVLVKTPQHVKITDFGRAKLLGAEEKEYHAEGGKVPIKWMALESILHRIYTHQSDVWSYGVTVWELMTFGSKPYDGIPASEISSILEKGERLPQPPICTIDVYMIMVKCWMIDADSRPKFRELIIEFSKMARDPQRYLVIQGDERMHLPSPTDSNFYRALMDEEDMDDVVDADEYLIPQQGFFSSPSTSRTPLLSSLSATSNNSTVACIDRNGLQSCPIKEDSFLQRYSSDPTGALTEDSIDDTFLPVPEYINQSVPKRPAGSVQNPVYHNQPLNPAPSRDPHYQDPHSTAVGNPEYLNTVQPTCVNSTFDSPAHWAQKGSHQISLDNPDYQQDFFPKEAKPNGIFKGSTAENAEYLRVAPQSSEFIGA

C=CC(=O)Nc1cccc(Oc2nc(Nc3ccc(N4CCN(C)CC4)cc3OC)ncc2Cl)c1 [WZ-4002]
interference with binding of Compound A to EGFR: interfere
